Source: US20110160399A1, “HISTONE MODIFICATION INHIBITOR SPECIFIC TO TARGET GENE” (NIHON UNIVERSITY, priority 2008, published 2011)

What was measured:
[1] = system: LOVO (human large bowel cancer cell line); experiment: Cell proliferation assay (WST-8) on LOVO cells; assay type: cell-based; conditions: 72 hours
Protocol: Next, the synthesized compounds were verified by WST-8 assay for their ability to suppress cancer cell proliferation.
Cell lines of HeLa (human uterine cervical cancer cell line), LOVO, RKO and SW480 (each of which was a human large bowel cancer cell line) were each cultured at 37° C. under 5% carbon dioxide conditions using Dulbecco's modified Eagle's medium (DMEM, Nacalai Tesque, Inc., Japan) supplemented with 10% fetal bovine serum (FBS: JRH bioscience, USA), antibiotics (50 U/ml penicillin and 50 μg/ml streptomycin) and 1 mM sodium pyruvate. […]
Each cell line seeded at 3×10^3 cells/well in a MICROTEST tissue culture plate (96 well, FALCON) was cultured at 37° C. under 5% carbon dioxide conditions for 24 hours, and then cultured in the presence of various concentrations of PI polyamide for an additional 72 hours. After completion of the culture, 10 μl of viable cell counting reagent SF (Nacalai Tesque, Inc., Japan) was added to each well and the absorbance at 450 nm was measured by ARVO EX (PerkinElmer). During the period from reagent addition until assay, incubation was continued at 37° C. in the presence of 5% CO2 until the absorbance reached about 1.2 to 2.0 in the control sample where only 50% DMSO was added to the cells.

LARP1 gene expression = experiment: Expression analysis of LARP1 gene by quantitative PCR in HEK293 cells; assay type: cell-based, human; conditions: 150 nM, one week, compared to esterified SAHA+p16 PIP or SAHA+non-targeting PIP, FIG. 11
Protocol: HEK293 cells were used to analyze LARP1 gene expression. HEK293 cells are a cell line established by transformation of human embryonic kidney cells with the adenovirus E1 gene. The LARP1 gene includes, in its gene region, a sequence similar to the sequence of the regulatory region in the p16 gene recognized by SAHA+p16 PIP, as described above. More specifically, the expression analysis was accomplished as follows. HEK293 cells were cultured in DMEM growth medium containing 10% fetal calf serum (FCS). During culture, the medium was replaced every two days by a culture solution containing the synthesized compound (SAHA+p16 PIP, esterified SAHA+p16 PIP or SAHA+non-targeting PIP) at a final concentration of 150 nM, and cell culture was continued for one week in the medium containing the above synthesized compound. After one week, the cells were lysed with 1 ml of TRIzol and then mixed with 200 μl of chloroform, followed by centrifugation at 12000×g at 4° C. for 10 minutes. Then, the supernatant was mixed with an equal volume of isopropanol and centrifuged at 12000×g at 4° C. for 10 minutes. Then, the pellet was washed with a 70% ethanol solution and centrifuged at 5000×g for 5 minutes to remove the supernatant. […] The RNA (1 μg) was used as a template to synthesize cDNA, followed by quantitative PCR. […]

In the case of `CN(C)CCCNC(=O)CCNC(=O)c1cc(NC(=O)c2nc(NC(=O)c3nc(NC(=O)CCNC(=O)c4cc(NC(=O)c5nc(NC(=O)CCCNC(=O)c6cc(NC(=O)c7nc(NC(=O)CCNC(=O)c8cc(NC(=O)c9cc(NC(=O)c%10nc(NC(=O)CCNC(=O)CCNC(=O)c%11ccc(NC(=O)CCCCCCC(=O)NO)cc%11)cn%10C)cn9C)cn8C)cn7C)cn6C)cn5C)cn4C)cn3C)cn2C)cn1C` [SAHA+p16 PIP, SAHA-ββImPyPyβImPyγImPyβImImPyβDp], the “suppression of LOVO cell proliferation at 100 nM” value ([1]; 100 nM, FIG. 4) was “not suppressed”, the “inhibition of LOVO cell proliferation” value ([1]; WST-8, FIG. 4) was “inhibit proliferation” and the “expression of the LARP1 gene” value (LARP1 gene expression) was “increased expression”.
